# Test results published in patent US11746113B2, “Labelled cannabinergic ligands and related analogs” (priority 2020, dated 2023).
# Legend:
# [1] = Fluorescence properties (excitation/emission maxima); type: physicochemical
# [2] = tested on: CB1/CB2 receptors; test: Tight/irreversible binding: reduction of [3H]CP-55,940 Bmax after ligand pretreatment; settings: receptors preincubated with ligand at 10-fold its Ki; saturation binding with [3H]CP-55,940; FIG. 8C
# Method: Some disclosed compounds were tested for CB1 and CB2 receptor binding affinity (Tables 1, 2 and 3). As used herein “binding affinity” is represented by the Ki value. The Ki value is the affinity constant and describes the affinity of the compound for the receptor. The lower the Ki value, the higher the affinity of the compound for the receptor. A detailed description of the methods used to test “binding affinity” of compounds is given in Makriyannis, et al., US 2007, 0135388 and in Papahatjis, et al. J. Med. Chem. (2007) 4048, the content of each of which is hereby incorporated by reference. Functional characterization of some of the disclosed compounds was performed by using the cyclic adenosine monophosphate (cAMP) assay. The functional potency of the compound is represented by the EC50 value. The lower the EC50 value, the higher the functional potency. A detailed description of the cyclic adenosine monophosphate (cAMP) assay is given in Nikas et al. J. Med. Chem. (2010) 6996. The ability of some of the ligands to bind to the CB1/CB2 receptors with a tight/irreversible binding mode was determined by measuring reductions in the binding for the radioligand [3H]CP-55,940 when the receptor preparation was pretreated with the tight/irreversible ligand, and comparing it to the untreated sample as disclosed in Ogava et al. J. Med. Chem. (2015) 58, 3104. Reductions in the specific binding (Bmax) of [^3H]CP-55,940 after ligand pretreatment indicate ability of the ligand to tight/irreversibly bind to the receptor. As detailed in Ogava et al. J Med. Chem. (2015) 58, 3104, the experiment was conducted by pretreating the sample with a concentration equal to 10-fold the compound's Ki value for the receptor in question and subsequently measuring the decrease of Bmax obtained from a saturation curve using [3H]CP-55,940.
compound,measurement,setting,value
"CCCCCCC(C)(C)c1cc(OC(=O)C(C)(C)CCCNC(=O)c2cc3cc4c5c(c3oc2=O)CCCN5CCC4)c2c(c1)OC(C)(C)C1CCC(=O)C[C@@H]21 (stereo in doubt) [Compound 9.11, (6aS,10aR)-6,6-Dimethyl-3-(2-methyloctan-2-yl)-9-oxo-6a,7,8,9,10,10a-hexahydro-6H-benzo[c]chromen-1-yl 2,2-dimethyl-5-(11-oxo-2,3,6,7-tetrahydro-1H, 5H, 11H-pyrano[2,3-f]pyrido[3,2,1-ij]quinoline-10-carboxamido)pentanoate]",melting point,,130 to 131 °C
"CCCCCCC(C)(C)c1cc(OC(=O)C(C)(C)CCNC(=O)c2cc3cc4c5c(c3oc2=O)CCCN5CCC4)c2c(c1)OC(C)(C)[C@@H]1CCC(=O)C[C@@H]21 [Compound 9.10, (6aR,10aR)-6,6-Dimethyl-3-(2-methyloctan-2-yl)-9-oxo-6a,7,8,9,10,10a-hexahydro-6H-benzo[c]chromen-1-yl 2,2-dimethyl-4-(11-oxo-2,3,6,7-tetrahydro-1H, 5H, 11H-pyrano[2,3-f]pyrido[3,2,1-ij]quinoline-10-carboxamido)butanoate]",melting point,,132 to 133 °C
"CCCCCCC(C)(C)c1cc(OC(=O)c2cc3cc4c5c(c3oc2=O)CCCN5CCC4)c2c(c1)OC(C)(C)[C@@H]1CCC(=O)C[C@@H]21 [Compound 7.1, (6aR,10aR)-6,6-Dimethyl-3-(2-methyloctan-2-yl)-9-oxo-6a,7,8,9,10,10a-hexahydro-6H-benzo[c]chromen-1-yl 11-oxo-2,3,6,7-tetrahydro-1H, 5H, 11H-pyrano[2,3-f]pyrido[3,2,1-ij]quinoline-10-carboxylate]",melting point,,132 to 133 °C
"CN(C)S(=O)(=O)c1ccc(NCc2cn(C[C@@H]3CC[C@@H]4[C@@H](C3)c3c(O)cc(C(C)(C)CCCCCCCl)cc3OC4(C)C)nn2)c2nonc12 [Compound 3.3, 7-(((1-(((6aR,9R,10aR)-3-(8-Chloro-2-methyloctan-2-yl)-1-hydroxy-6,6-dimethyl-6a,7,8,9,10,10a-hexahydro-6H-benzo [c]chromen-9-yl)methyl)-1H-1,2,3-triazol-4-yl)methyl)amino)-N,N-dimethylbenzo[c][1,2,5]oxadiazole-4-sulfonamide]",Em λmax,[1]; Acetonitrile,583
same,Ex λmax,[1]; Acetonitrile,416
same,Em λmax,[1]; Ethanol,581
same,Ex λmax,[1]; Ethanol,415
"CCCCCCC(C)(C)c1cc(OC(=O)C(C)(C)CCCCNC(=O)c2cc3cc4c5c(c3oc2=O)CCCN5CCC4)c2c(c1)OC(C)(C)C1CCC(=O)C[C@@H]21 (stereo in doubt) [Compound 9.12, (6aS,10aR)-6,6-Dimethyl-3-(2-methyloctan-2-yl)-9-oxo-6a,7,8,9,10,10a-hexahydro-6H-benzo[c]chromen-1-yl 2,2-dimethyl-6-(11-oxo-2,3,6,7-tetrahydro-1H, 5H, 11H-pyrano[2,3-f]pyrido[3,2,1-ij]quinoline-10-carboxamido)hexanoate]",melting point,,133 to 134 °C
"CC(C)(CCCCCCCl)c1cc(O)c2c(c1)OC(C)(C)[C@@H]1CC[C@@H](Cn3cc(COC(=O)CCCCCNC(=O)CCCC[C@@H]4SC[C@@H]5NC(=O)N[C@@H]54)nn3)C[C@@H]21 [Compound 3.2, (1-{[(6aR,9R,10aR)-3-(8-Chloro-2-methyloctan-2-yl)-1-hydroxy-6,6-dimethyl-6a,7,8,9,10,10a-hexahydro-6H-benzo [c]chromen-9-yl]methyl}-1H-1,2,3-triazol-4-yl)methyl 6-{5-[(3aS,4S,6aR)-2-oxohexahydro-1H-thieno[3,4-d]imidazol-4-yl]pentanamido}hexanoate]",tight/irreversible binding mode,[2],tight/irreversible
"CC(C)(CCCCCCCl)c1cc(O)c2c(c1)OC(C)(C)[C@@H]1CC[C@@H](COC(=O)CCCC[C@@H]3SC[C@@H]4NC(=O)N[C@@H]43)C[C@@H]21 [Compound 4.2, [(6aR,9R,10aR)-3-(8-Chloro-2-methyloctan-2-yl)-1-hydroxy-6,6-dimethyl-6a,7,8,9,10,10a-hexahydro-6H-benzo[c]chromen-9-yl]methyl 5-[(3a,4S,6aR)-2-oxohexahydro-1H-thieno[3,4-d]imidazol-4-yl]pentanoate]",tight/irreversible binding mode,[2],tight/irreversible
"CC(C)(CCCCCCCl)c1cc(O)c2c(c1)OC(C)(C)[C@@H]1CC[C@@H](COC(=O)CCCCCNC(=O)CCCC[C@@H]3SC[C@@H]4NC(=O)N[C@@H]43)C[C@@H]21 [Compound 4.4, [(6aR,9R,10aR)-3-(8-Chloro-2-methyloctan-2-yl)-1-hydroxy-6,6-dimethyl-6a,7,8,9,10,10a-hexahydro-6H-benzo[c]chromen-9-yl]methyl 6-{5-[(3aS,4S,6aR)-2-oxohexahydro-1H-thieno[3,4-d]imidazol-4-yl]pentanamido}hexanoate]",tight/irreversible binding mode,[2],tight/irreversible
"CCCCCCC(C)(C)c1cc(OC(=O)C(C)(C)CNC(=O)c2cc3cc4c5c(c3oc2=O)CCCN5CCC4)c2c(c1)OC(C)(C)[C@@H]1CCC(=O)C[C@@H]21 [Compound 9.9, (6aR,10aR)-6,6-Dimethyl-3-(2-methyloctan-2-yl)-9-oxo-6a,7,8,9,10,10a-hexahydro-6H-benzo[c]chromen-1-yl 2,2-dimethyl-3-(11-oxo-2,3,6,7-tetrahydro-1H, 5H, 11H-pyrano[2,3-f]pyrido[3,2,1-ij]quinoline-10-carboxamido)propanoate]",melting point,,131 to 132 °C
"CC(C)(CCCCCCCl)c1cc(O)c2c(c1)OC(C)(C)[C@@H]1CC[C@@H](Cn3cc(COCCCCNC(=O)c4cc5cc6c7c(c5oc4=O)CCCN7CCC6)nn3)C[C@@H]21 [Compound 3.4, N-{4-[(1-{[(6aR,9R,10aR)-3-(8-Chloro-2-methyloctan-2-yl)-1-hydroxy-6,6-dimethyl-6a,7,8,9,10,10a-hexahydro-6H-benzo[c]chromen-9-yl]methyl}-1H-1,2,3-triazol-4-yl)methoxy]butyl}-11-oxo-2,3,6,7-tetrahydro-1H, 5H, 11H-pyrano[2,3-f]pyrido[3,2,1-ij]quinoline-10-carboxamide]",Em λmax,[1]; Acetonitrile,488
same,Ex λmax,[1]; Acetonitrile,437
same,Em λmax,[1]; Ethanol,477
same,Ex λmax,[1]; Ethanol,436
"CCCCCCC(C)(C)c1cc(OC(=O)c2cc3ccc(OC)cc3oc2=O)c2c(c1)OC(C)(C)[C@@H]1CCC(=O)C[C@@H]21 [Compound 7.2, (6aR,10aR)-6,6-Dimethyl-3-(2-methyloctan-2-yl)-9-oxo-6a,7,8,9,10,10a-hexahydro-6H-benzo[c]chromen-1-yl 7-methoxy-2-oxo-2H-chromene-3-carboxylate]",melting point,,122 to 123 °C
CC(C)(CCCCCCCl)c1cc(O)c2c(c1)OC(C)(C)[C@@H]1CC[C@@H](Cn3cc(CNC(=O)c4cc5cc6c7c(c5oc4=O)CCCN7CCC6)nn3)C[C@@H]21 [Compound 3.13],Em λmax,[1]; Acetonitrile,488
same,Ex λmax,[1]; Acetonitrile,435
same,Em λmax,[1]; Ethanol,478
same,Ex λmax,[1]; Ethanol,436
"CC(C)(CCCCCCO[N+](=O)[O-])c1cc(O)c2c(c1)OC(C)(C)[C@@H]1CC[C@@H](COC(=O)CCCC[C@@H]3SC[C@@H]4NC(=O)N[C@@H]43)C[C@@H]21 [Compound 4.7, {(6aR,9R,10aR)-1-Hydroxy-6,6-dimethyl-3-[2-methyl-8-(nitrooxy)octan-2-yl]-6a,7,8,9,10,10a-hexahydro-6H-benzo[c]chromen-9-yl}methyl 5-[(3aS,4S,6aR)-2-oxohexahydro-1H-thieno[3,4-d]imidazol-4-yl]pentanoate]",tight/irreversible binding mode,[2],tight/irreversible
"CC(C)(CCCCCCCl)c1cc(O)c2c(c1)OC(C)(C)[C@@H]1CC[C@@H](Cn3cc(COC(=O)CCCC[C@@H]4SC[C@@H]5NC(=O)N[C@@H]54)nn3)C[C@@H]21 [Compound 3.1, (1-{[(6aR,9R,10aR)-3-(8-Chloro-2-methyloctan-2-yl)-1-hydroxy-6,6-dimethyl-6a,7,8,9,10,10a-hexahydro-6H-benzo [c]chromen-9-yl]methyl}-1H-1,2,3-triazol-4-yl)methyl 5-[(3aS,4S,6aR)-2-oxohexahydro-1H-thieno[3,4-d]imidazol-4-yl]pentanoate]",tight/irreversible binding mode,[2],tight/irreversible
